Source: US6906205B2, “Spiro and dispiro 1,2,4-trioxolane antimalarials” (Medicines for Malaria Venture MMV, priority 2002, dated 2005)
In brackets after ≈: the same amount, converted by molar mass.

Columns and labels:
[1] = tested on: P. falciparum NF54 strain (sensitive to standard antimalarials); assay: semiautomated microdilution assay, [3H]-hypoxanthine incorporation, NF54 strain; type: cell-based, Plasmodium falciparum; conditions: NF54 strain, 72 h incubation
In short: (§1)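 Asynchronous stock cultures → intraerythrocytic forms; semiautomated microdilution; IC50 by logit regression.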

[2] = tested on: ANKA strain of P. berghei; assay: single dose STI in vivo screen in infected mice; parameters: species or system Plasmodium berghei; conditions: for Activity (%) po / Activity (%) sc / Activity (%) SSVpo: percent reduction in parasitemia day 3 post-infection, mice; for Activity (%) po / Survival (days) po: single 10 mg/kg po in 3% ethanol and 7% Tween 80; for Activity (%) sc / Survival (days) sc: single 10 mg/kg sc in 3% ethanol and 7% Tween 80; for Activity (%) SSVpo: single po dose in standard suspending vehicle (SSV); for Survival (days) po / Survival (days) sc / Survival (days) SSVpo: untreated control 5.6 ± 0.3; for Survival (days) SSVpo: single po dose in SSV
In short: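 Groups of 3-5 Moro SPF or NMRI mice infected with the ANKA strain of P. berghei received a single dose of trioxolane on day one post-infection. The compound was given in 3% ethanol and 7% Tween 80 or in SSV (0.5% w/v CMC, 0.5% v/v benzyl alcohol, 0.4% v/v Tween 80, 0.9% w/v sodium chloride in water). Antimalarial activity was scored as percent reduction in parasitemia on day three and as survival time versus untreated controls. Survival to day 30 counted as cure.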

[3] = tested on: P. falciparum K1 strain (Thailand resistant to chloroquine); assay: semiautomated microdilution assay, [3H]-hypoxanthine incorporation, K1 strain; type: cell-based, Plasmodium falciparum; conditions: K1 strain, 72 h incubation
In short: as §1

SMILES	IC50 (ng/ml) NF54 [1]	Activity (%) po [2]	Activity (%) sc [2]	Activity (%) SSVpo [2]	Survival (days) po [2] [days]	Survival (days) sc [2] [days]	Survival (days) SSVpo [2] [days]	IC50 (ng/ml) K1 [3]
c1cc(CN2CCC3(CC2)OOC2(O3)C3CC4CC(C3)CC2C4)ccn1 (stereo not shown) [OZ216]	0.67 ng/mL (≈ 1.88 nM)	62%	99.02%	69%	6.3	11.0	7.7	0.40 ng/mL (≈ 1.12 nM)
O=C(C[C@H]1CC[C@]2(CC1)OOC1(O2)C2CC3CC(C2)CC1C3)Nc1nccs1 (stereo partly shown) [OZ217]	2.0/2.0 ng/ml	67%	98%	8%	7.0	8.0	6.0	2.0/2.0 ng/ml
O=C(C[C@H]1CC[C@]2(CC1)OOC1(O2)C2CC3CC(C2)CC1C3)N1CCCCC1 (stereo partly shown) [OZ218]	3.0 ng/mL (≈ 7.7 nM)	98%	99.68%	99.30%	10.0	9.0	14.3	2.0 ng/mL (≈ 5.13 nM)
c1ccc(CN2CCC3(CC2)OOC2(O3)C3CC4CC(C3)CC2C4)cc1 (stereo not shown) [OZ220]	4.9 ng/mL (≈ 13.8 nM)	40%	99.95%	0%	6.0	10.0	5.3	6.9 ng/mL (≈ 19.4 nM)
NC(=O)N[C@H]1CC[C@]2(CC1)OOC1(O2)C2CC3CC(C2)CC1C3 (stereo partly shown) [OZ221]	>10/>10 ng/ml	80%	97%	87%	6.3	8.0	7.0	>10/>10 ng/ml
CC(C)(C)NC(=O)N[C@H]1CC[C@]2(CC1)OOC1(O2)C2CC3CC(C2)CC1C3 (stereo partly shown) [OZ222]	6.3 ng/mL (≈ 16.6 nM)	87%	99.76%	75%	7.7	10.0	7.0	3.9 ng/mL (≈ 10.3 nM)
COC(=O)c1cncn1C[C@H]1CC[C@]2(CC1)OOC1(O2)C2CC3CC(C2)CC1C3 (stereo partly shown) [OZ223]	> 10 ng/mL	89%	99.57%	79%	7.3	12.0	6.3	4.0 ng/mL (≈ 9.94 nM)
COC(=O)c1cn(C[C@H]2CC[C@]3(CC2)OOC2(O3)C3CC4CC(C3)CC2C4)cn1 (stereo partly shown) [OZ224]	3.0 ng/mL (≈ 7.45 nM)	0%	20%	5%	6.0	5.7	5.7	2.0 ng/mL (≈ 4.97 nM)
O=C(O)c1cn(C[C@H]2CC[C@]3(CC2)OOC2(O3)C3CC4CC(C3)CC2C4)cn1 (stereo partly shown) [OZ225]	> 10 ng/mL	0%	17%	0%	5.7	6.3	5.7	7.3 ng/mL (≈ 18.8 nM)
[N-]=[N+]=NCC[C@H]1CC[C@]2(CC1)OOC1(O2)C2CC3CC(C2)CC1C3 (stereo partly shown) [OZ228]	2.1 ng/mL (≈ 6.3 nM)	99.94%	99.94%	28%	10.3	14.0	6.0	2.0 ng/mL (≈ 6 nM)
O=C(NC[C@H]1CC[C@]2(CC1)OOC1(O2)C2CC3CC(C2)CC1C3)c1ccccc1C(=O)NC[C@H]1CC[C@]2(CC1)OOC1(O2)C2CC3CC(C2)CC1C3 (stereo partly shown) [OZ230]	3.6 ng/mL (≈ 5.02 nM)	0/0/0%	0/0/0%	0/0/0%	5.3	5.7	5.7	3.9 ng/mL (≈ 5.44 nM)
O=C(O)c1cncn1C[C@H]1CC[C@]2(CC1)OOC1(O2)C2CC3CC(C2)CC1C3 (stereo partly shown) [OZ231]	>10/>10 ng/ml	0/0/0%	0/0/0%	0/0/0%	5.3	6.0	5.7	>10/>10 ng/ml
CN(C)C[C@H]1CC[C@]2(CC1)OOC1(O2)C2CC3CC(C2)CC1C3 (stereo partly shown) [OZ232]	0.50 ng/mL (≈ 1.56 nM)	76%	99.94%	74%	8.0	8.7	7.3	0.30 ng/mL (≈ 0.933 nM)
COC(=O)c1ncnn1C[C@H]1CC[C@]2(CC1)OOC1(O2)C2CC3CC(C2)CC1C3 (stereo partly shown) [OZ233]	1.9 ng/mL (≈ 4.71 nM)	69%	99.66%	76%	7.0	8.3	7.7	1.7 ng/mL (≈ 4.21 nM)
COC(=O)c1ncn(C[C@H]2CC[C@]3(CC2)OOC2(O3)C3CC4CC(C3)CC2C4)n1 (stereo partly shown) [OZ234]	3.6 ng/mL (≈ 8.92 nM)	12%	0%	0%	6.0	6.3	6.0	3.0 ng/mL (≈ 7.44 nM)
NC(=O)CN(CC(N)=O)C[C@H]1CC[C@]2(CC1)OOC1(O2)C2CC3CC(C2)CC1C3 (stereo partly shown) [OZ236]	2.0/2.0 ng/ml	89%	98.61%	86%	6.3	7.7	7.7	2.0/2.0 ng/ml
N=C(N)NC[C@H]1CC[C@]2(CC1)OOC1(O2)C2CC3CC(C2)CC1C3 (stereo partly shown) [OZ237]	7.1 ng/mL (≈ 21.2 nM)	5%	52%	9%	6.0	6.7	6.0	5.7 ng/mL (≈ 17 nM)
NC(=O)C[C@H]1CC[C@]2(CC1)OOC1(O2)C2CC3CC(C2)CC1C3 (stereo partly shown) [OZ243]	1.1 ng/mL (≈ 3.42 nM)	87%	70%	97%	7.3	6.3	8.7	0.91 ng/mL (≈ 2.83 nM)
O=C(C[C@H]1CC[C@]2(CC1)OOC1(O2)C2CC3CC(C2)CC1C3)N1CCN(c2ccccc2)CC1 (stereo partly shown) [OZ244]	4.2 ng/mL (≈ 9 nM)	6%	18%	0%	5.7	6.3	5.3	4.0 ng/mL (≈ 8.57 nM)
OC1(c2nccs2)CCC2(CC1)OOC1(O2)C2CC3CC(C2)CC1C3 (stereo not shown) [OZ247]	2.3 ng/mL (≈ 6.33 nM)	57%	99.85%	27%	6.3	9.0	6.0	1.8 ng/mL (≈ 4.95 nM)
c1c[nH]c([C@H]2CC[C@]3(CC2)OOC2(O3)C3CC4CC(C3)CC2C4)n1 (stereo partly shown) [OZ251]	0.35 ng/mL (≈ 1.06 nM)	29%	99.87%	6%	6.7	9.0	6.0	0.60 ng/mL (≈ 1.82 nM)
c1csc(NC[C@H]2CC[C@]3(CC2)OOC2(O3)C3CC4CC(C3)CC2C4)n1 (stereo partly shown) [OZ252]	2.2 ng/mL (≈ 5.84 nM)	98.91%	99.82%	99.49%	8.3	9.3	9.0	2.3 ng/mL (≈ 6.11 nM)
C1C2CC3CC1CC(C2)C31OO[C@]2(CC[C@@H](CNC3CC3)CC2)O1 (stereo partly shown) [OZ253]	0.45 ng/mL (≈ 1.35 nM)	75%	99.82%	59%	7.0	9.3	6.7	0.56 ng/mL (≈ 1.68 nM)
